Experimental data published in the supplement of paper PMC13207355.

How the values were obtained:
Settings in all cases: exposure time: 72 h
FT3469 [1] = normal neural stem cell line; test: phenotypic distance (Euclidean, principal components) from DMSO controls (arbitrary units); higher = stronger morphological change
E28 [2] = patient-derived glioblastoma stem cells of classical subtype; test: as above
E13 [3] = patient-derived glioblastoma stem cells of classical subtype; test: as above
E34 [4] = patient-derived glioblastoma stem cells of proneural subtype; test: as above
E57 [5] = patient-derived glioblastoma stem cells of mesenchymal subtype; test: as above
E21 [6] = patient-derived glioblastoma stem cells of mesenchymal subtype; test: as above
E31 [7] = patient-derived glioblastoma stem cells of proneural subtype; test: as above
FT3469 [8] = test: surviving fraction (nuclei count normalised to DMSO); higher = more cells surviving (less toxic)
E28 [9] = test: as above
E13 [10] = test: as above
E34 [11] = test: as above
E57 [12] = test: as above
E21 [13] = test: as above
E31 [14] = test: as above
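Wherever phenotypic distance (Euclidean, principal components) from DMSO controls is given: cell Painting imaging in 384-well plates, CellProfiler features reduced to at least 20 principal components, Euclidean distance versus same-plate DMSO vehicle wells (0.1% v/v), median over six images per well.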
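Wherever surviving fraction (nuclei count normalised to DMSO) is given: nuclei counted by high-content imaging of Hoechst-stained cells in laminin-coated 384-well plates, relative to 0.1% DMSO vehicle wells, with staurosporine as cell-death control.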

COc1cc([C@@H]2c3cc4c(cc3[C@H](O)[C@H]3COC(=O)[C@H]23)OCO4)cc(OC)c1OC [Podophyllotoxin]
Settings | phenotypic distance | surviving fraction
E13 [3], 4.1 nM | 6.81 | –
E13 [3], 12.3 nM | 7.76 | –
E13 [3], 37 nM | 6.3 | –
E13 [3], 111.1 nM | 8.14 | –
E13 [3], 333.3 nM | 7.56 | –
E13 [3], 1000 nM | 9.37 | –
E13 [3], 3000 nM | 9.25 | –
E13 [10], 4.1 nM | – | 0.153
E13 [10], 12.3 nM | – | 0.182
E13 [10], 37 nM | – | 0.139
E13 [10], 111.1 nM | – | 0.182
E13 [10], 333.3 nM | – | 0.123
E13 [10], 1000 nM | – | 0.197
E13 [10], 3000 nM | – | 0.112
E21 [6], 4.1 nM | 8.85 | –
E21 [6], 12.3 nM | 8.76 | –
E21 [6], 37 nM | 8.54 | –
E21 [6], 111.1 nM | 8.65 | –
E21 [6], 333.3 nM | 8.16 | –
E21 [6], 1000 nM | 8.89 | –
E21 [6], 3000 nM | 8.66 | –
E21 [13], 4.1 nM | – | 0.115
E21 [13], 12.3 nM | – | 0.113
E21 [13], 37 nM | – | 0.0947
E21 [13], 111.1 nM | – | 0.0585
E21 [13], 333.3 nM | – | 0.0628
E21 [13], 1000 nM | – | 0.0607
E21 [13], 3000 nM | – | 0.0362
E28 [2], 4.1 nM | 3.02 | –
E28 [2], 12.3 nM | 3.22 | –
E28 [2], 37 nM | 4.05 | –
E28 [2], 111.1 nM | 5.71 | –
E28 [2], 333.3 nM | 5.89 | –
E28 [2], 1000 nM | 6.42 | –
E28 [2], 3000 nM | 6.86 | –
E28 [9], 4.1 nM | – | 0.354
E28 [9], 12.3 nM | – | 0.369
E28 [9], 37 nM | – | 0.324
E28 [9], 111.1 nM | – | 0.265
E28 [9], 333.3 nM | – | 0.22
E28 [9], 1000 nM | – | 0.209
E28 [9], 3000 nM | – | 0.198
E31 [7], 4.1 nM | 5.03 | –
E31 [7], 12.3 nM | 5.75 | –
E31 [7], 37 nM | 7.75 | –
E31 [7], 111.1 nM | 13.3 | –
E31 [7], 333.3 nM | 11.2 | –
E31 [7], 1000 nM | 14.3 | –
E31 [7], 3000 nM | 13.5 | –
E31 [14], 4.1 nM | – | 0.0505
E31 [14], 12.3 nM | – | 0.0728
E31 [14], 37 nM | – | 0.0565
E31 [14], 111.1 nM | – | 0.0446
E31 [14], 333.3 nM | – | 0.0282
E31 [14], 1000 nM | – | 0.0371
E31 [14], 3000 nM | – | 0.0297
E34 [4], 4.1 nM | 4.47 | –
E34 [4], 12.3 nM | 4.98 | –
E34 [4], 37 nM | 6.57 | –
E34 [4], 111.1 nM | 8.02 | –
E34 [4], 333.3 nM | 7.55 | –
E34 [4], 1000 nM | 9.53 | –
E34 [4], 3000 nM | 9.18 | –
E34 [11], 4.1 nM | – | 0.471
E34 [11], 12.3 nM | – | 0.378
E34 [11], 37 nM | – | 0.31
E34 [11], 111.1 nM | – | 0.339
E34 [11], 333.3 nM | – | 0.32
E34 [11], 1000 nM | – | 0.329
E34 [11], 3000 nM | – | 0.249
E57 [5], 4.1 nM | 6.96 | –
E57 [5], 12.3 nM | 6.65 | –
E57 [5], 37 nM | 7.38 | –
E57 [5], 111.1 nM | 5.64 | –
E57 [5], 333.3 nM | 6.77 | –
E57 [5], 1000 nM | 7.07 | –
E57 [5], 3000 nM | 6.6 | –
E57 [12], 4.1 nM | – | 0.0665
E57 [12], 12.3 nM | – | 0.0974
E57 [12], 37 nM | – | 0.0586
E57 [12], 111.1 nM | – | 0.0625
E57 [12], 333.3 nM | – | 0.089
E57 [12], 1000 nM | – | 0.0755
E57 [12], 3000 nM | – | 0.0653
FT3469 [1], 4.1 nM | 4.23 | –
FT3469 [1], 12.3 nM | 5.67 | –
FT3469 [1], 37 nM | 4.76 | –
FT3469 [1], 111.1 nM | 6.26 | –
FT3469 [1], 333.3 nM | 5.78 | –
FT3469 [1], 1000 nM | 5.4 | –
FT3469 [1], 3000 nM | 6.63 | –
FT3469 [8], 4.1 nM | – | 0.517
FT3469 [8], 12.3 nM | – | 0.541
FT3469 [8], 37 nM | – | 0.375
FT3469 [8], 111.1 nM | – | 0.377
FT3469 [8], 333.3 nM | – | 0.433
FT3469 [8], 1000 nM | – | 0.416
FT3469 [8], 3000 nM | – | 0.379

O=C(/C=C\n1cnc(-c2cc(C(F)(F)F)cc(C(F)(F)F)c2)n1)NNc1cnccn1 [Selinexor]
Settings | phenotypic distance | surviving fraction
E13 [3], 4.1 nM | 1.6 | –
E13 [3], 12.3 nM | 2.09 | –
E13 [3], 37 nM | 3.06 | –
E13 [3], 111.1 nM | 3.35 | –
E13 [3], 333.3 nM | 3.49 | –
E13 [3], 1000 nM | 3.23 | –
E13 [3], 3000 nM | 4.73 | –
E13 [10], 4.1 nM | – | 0.654
E13 [10], 12.3 nM | – | 0.572
E13 [10], 37 nM | – | 0.418
E13 [10], 111.1 nM | – | 0.355
E13 [10], 333.3 nM | – | 0.384
E13 [10], 1000 nM | – | 0.31
E13 [10], 3000 nM | – | 0.242
E21 [6], 4.1 nM | 2.91 | –
E21 [6], 12.3 nM | 3.17 | –
E21 [6], 37 nM | 3.01 | –
E21 [6], 111.1 nM | 3.44 | –
E21 [6], 333.3 nM | 3.53 | –
E21 [6], 1000 nM | 3.96 | –
E21 [6], 3000 nM | 4.26 | –
E21 [13], 4.1 nM | – | 0.753
E21 [13], 12.3 nM | – | 0.729
E21 [13], 37 nM | – | 0.667
E21 [13], 111.1 nM | – | 0.572
E21 [13], 333.3 nM | – | 0.541
E21 [13], 1000 nM | – | 0.51
E21 [13], 3000 nM | – | 0.315
E28 [2], 4.1 nM | 1.34 | –
E28 [2], 12.3 nM | 1.88 | –
E28 [2], 37 nM | 2.76 | –
E28 [2], 111.1 nM | 2.65 | –
E28 [2], 333.3 nM | 2.86 | –
E28 [2], 1000 nM | 2.69 | –
E28 [2], 3000 nM | 3.06 | –
E28 [9], 4.1 nM | – | 0.643
E28 [9], 12.3 nM | – | 0.605
E28 [9], 37 nM | – | 0.441
E28 [9], 111.1 nM | – | 0.4
E28 [9], 333.3 nM | – | 0.327
E28 [9], 1000 nM | – | 0.373
E28 [9], 3000 nM | – | 0.246
E31 [7], 4.1 nM | 2.16 | –
E31 [7], 12.3 nM | 2.72 | –
E31 [7], 37 nM | 2.72 | –
E31 [7], 111.1 nM | 3.08 | –
E31 [7], 333.3 nM | 2.98 | –
E31 [7], 1000 nM | 2.55 | –
E31 [7], 3000 nM | 3.17 | –
E31 [14], 4.1 nM | – | 0.703
E31 [14], 12.3 nM | – | 0.51
E31 [14], 37 nM | – | 0.444
E31 [14], 111.1 nM | – | 0.38
E31 [14], 333.3 nM | – | 0.311
E31 [14], 1000 nM | – | 0.331
E31 [14], 3000 nM | – | 0.239
E34 [4], 4.1 nM | 1.14 | –
E34 [4], 12.3 nM | 1.28 | –
E34 [4], 37 nM | 1.6 | –
E34 [4], 111.1 nM | 1.64 | –
E34 [4], 333.3 nM | 1.71 | –
E34 [4], 1000 nM | 1.72 | –
E34 [4], 3000 nM | 2.17 | –
E34 [11], 4.1 nM | – | 0.782
E34 [11], 12.3 nM | – | 0.833
E34 [11], 37 nM | – | 0.867
E34 [11], 111.1 nM | – | 0.547
E34 [11], 333.3 nM | – | 0.582
E34 [11], 1000 nM | – | 0.569
E34 [11], 3000 nM | – | 0.582
E57 [5], 4.1 nM | 2.64 | –
E57 [5], 12.3 nM | 2.17 | –
E57 [5], 37 nM | 2.78 | –
E57 [5], 111.1 nM | 3.97 | –
E57 [5], 333.3 nM | 4.39 | –
E57 [5], 1000 nM | 5.44 | –
E57 [5], 3000 nM | 6.2 | –
E57 [12], 4.1 nM | – | 0.554
E57 [12], 12.3 nM | – | 0.554
E57 [12], 37 nM | – | 0.43
E57 [12], 111.1 nM | – | 0.286
E57 [12], 333.3 nM | – | 0.313
E57 [12], 1000 nM | – | 0.32
E57 [12], 3000 nM | – | 0.244
FT3469 [1], 4.1 nM | 1.68 | –
FT3469 [1], 12.3 nM | 2.14 | –
FT3469 [1], 37 nM | 1.85 | –
FT3469 [1], 111.1 nM | 1.78 | –
FT3469 [1], 333.3 nM | 2.12 | –
FT3469 [1], 1000 nM | 1.48 | –
FT3469 [1], 3000 nM | 1.57 | –
FT3469 [8], 4.1 nM | – | 0.614
FT3469 [8], 12.3 nM | – | 0.659
FT3469 [8], 37 nM | – | 0.616
FT3469 [8], 111.1 nM | – | 0.614
FT3469 [8], 333.3 nM | – | 0.692
FT3469 [8], 1000 nM | – | 0.556
FT3469 [8], 3000 nM | – | 0.612
